Source: patent publication US20260265238A1, “COMPOUNDS AND PHARMACEUTICAL COMPOSITIONS THAT DEGRADE SWI/SNF-RELATED MATRIX-ASSOCIATED ACTIN-DEPENDENT REGULATOR OF CHROMATIN SUBFAMILY A” (Plexium, Inc., priority 2023, published 2026)

Legend:
[1] = target: T1, SMARCA2-HiBiT HeLa cells (protein which is expressed from the SMARCA2 gene) (Homo sapiens, UniProt P51531); assay: SMARCA2 degradation assay (HiBiT-fusion HeLa cell line, 24 h, luminescence); format: cell-based
T1 construct: protein which is expressed from the SMARCA2 and SMARCA4 genes; host or cells: HeLa (SMARCA2-HiBiT engineered line)
T1 sequence (P51531 whole entry, the tested form may be a part): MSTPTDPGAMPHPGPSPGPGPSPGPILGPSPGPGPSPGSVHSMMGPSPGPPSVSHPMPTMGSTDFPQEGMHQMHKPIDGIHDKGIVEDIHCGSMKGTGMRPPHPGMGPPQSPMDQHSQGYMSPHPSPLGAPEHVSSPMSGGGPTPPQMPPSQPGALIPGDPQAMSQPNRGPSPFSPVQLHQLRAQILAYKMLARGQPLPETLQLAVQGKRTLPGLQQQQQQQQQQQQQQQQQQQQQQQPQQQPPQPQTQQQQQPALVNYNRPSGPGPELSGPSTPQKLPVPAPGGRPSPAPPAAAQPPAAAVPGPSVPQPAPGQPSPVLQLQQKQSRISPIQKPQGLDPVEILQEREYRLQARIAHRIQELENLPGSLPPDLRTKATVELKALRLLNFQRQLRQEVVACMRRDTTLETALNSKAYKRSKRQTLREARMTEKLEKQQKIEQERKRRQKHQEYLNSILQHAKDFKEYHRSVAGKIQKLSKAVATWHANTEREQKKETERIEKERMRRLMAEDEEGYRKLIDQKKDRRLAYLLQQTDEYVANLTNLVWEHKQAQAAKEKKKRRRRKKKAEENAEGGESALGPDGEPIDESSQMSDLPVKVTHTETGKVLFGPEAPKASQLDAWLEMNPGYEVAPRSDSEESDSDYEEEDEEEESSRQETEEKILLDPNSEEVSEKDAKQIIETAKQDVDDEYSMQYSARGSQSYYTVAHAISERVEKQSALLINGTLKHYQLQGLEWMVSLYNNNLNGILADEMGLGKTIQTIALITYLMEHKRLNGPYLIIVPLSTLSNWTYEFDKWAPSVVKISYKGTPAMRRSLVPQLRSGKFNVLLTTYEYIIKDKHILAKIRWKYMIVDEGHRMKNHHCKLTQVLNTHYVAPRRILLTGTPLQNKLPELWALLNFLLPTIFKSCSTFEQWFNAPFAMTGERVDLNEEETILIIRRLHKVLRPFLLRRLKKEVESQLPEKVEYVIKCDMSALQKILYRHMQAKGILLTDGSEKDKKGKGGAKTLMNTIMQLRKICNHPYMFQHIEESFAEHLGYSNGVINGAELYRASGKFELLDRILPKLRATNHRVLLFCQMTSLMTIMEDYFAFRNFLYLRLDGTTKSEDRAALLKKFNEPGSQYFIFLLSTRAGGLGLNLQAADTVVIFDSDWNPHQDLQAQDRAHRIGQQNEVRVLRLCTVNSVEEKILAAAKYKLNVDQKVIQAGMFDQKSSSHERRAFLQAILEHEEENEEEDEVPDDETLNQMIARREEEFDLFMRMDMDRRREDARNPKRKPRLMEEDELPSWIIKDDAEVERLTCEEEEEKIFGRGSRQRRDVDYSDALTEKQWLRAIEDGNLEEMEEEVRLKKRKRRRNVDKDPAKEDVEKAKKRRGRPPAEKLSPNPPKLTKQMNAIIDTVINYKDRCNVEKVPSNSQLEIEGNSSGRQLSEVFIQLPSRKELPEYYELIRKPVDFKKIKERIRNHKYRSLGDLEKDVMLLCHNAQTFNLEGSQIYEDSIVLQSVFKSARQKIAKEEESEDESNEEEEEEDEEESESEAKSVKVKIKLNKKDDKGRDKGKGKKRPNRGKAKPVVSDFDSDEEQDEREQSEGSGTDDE
Description: (§1) SMARCA2 and SMARCA4 Degradation Assay
(§2) Degradation of protein which is expressed from the SMARCA2 and SMARCA4 genes was monitored using engineered HiBiT-fusion HeLa cell lines from Promega. In brief, 384-well white opaque plates (Greiner) were seeded with SMARCA2-HiBiT or SMARCA4-HiBiT HeLa cells at 8,000 cells/well and incubated overnight at 37° C. to allow cell attachment. After overnight incubation, test compounds were added in a 10-point dilution series (typically 10 μM to 300 pM) using a TECAN D300e Digital Dispenser, and plates were subsequently incubated for 24 hours at 37° C. 24-hours post-treatment, protein levels were quantified with the addition of HiBiT lytic buffer, LgBiT protein, and HiBiT substrate, according to manufacturer's specifications. Plates were incubated on an orbital plate shaker for 10 minutes at room temperature. Resulting luminescent values were read out using a ClarioStar plate reader and used to construct dose-response curves and calculation of degradation DC50s (GraphPad Prism).
(§3) Activity of the tested compounds is provided in Table 4 below as follows: A=DC50<0.050 μM; B=0.05 μM<DC50<0.50 μM; C=<0.5 μM<DC50<5.0 μM; D=DC50>5.0 μM. For SMARCA2 and SMARCA4 degradation activity @1 μM, +++=>70%; ++=30-70%; +=<30%.

[2] = target: T2, SMARCA4-HiBiT HeLa cells (protein which is expressed from the SMARCA4 gene) (Homo sapiens, UniProt P51532); assay: SMARCA4 degradation assay (HiBiT-fusion HeLa cell line, 24 h, luminescence); format: cell-based
T2 construct: protein which is expressed from the SMARCA2 and SMARCA4 genes; host or cells: HeLa (SMARCA4-HiBiT engineered line)
T2 sequence (P51532 whole entry, the tested form may be a part): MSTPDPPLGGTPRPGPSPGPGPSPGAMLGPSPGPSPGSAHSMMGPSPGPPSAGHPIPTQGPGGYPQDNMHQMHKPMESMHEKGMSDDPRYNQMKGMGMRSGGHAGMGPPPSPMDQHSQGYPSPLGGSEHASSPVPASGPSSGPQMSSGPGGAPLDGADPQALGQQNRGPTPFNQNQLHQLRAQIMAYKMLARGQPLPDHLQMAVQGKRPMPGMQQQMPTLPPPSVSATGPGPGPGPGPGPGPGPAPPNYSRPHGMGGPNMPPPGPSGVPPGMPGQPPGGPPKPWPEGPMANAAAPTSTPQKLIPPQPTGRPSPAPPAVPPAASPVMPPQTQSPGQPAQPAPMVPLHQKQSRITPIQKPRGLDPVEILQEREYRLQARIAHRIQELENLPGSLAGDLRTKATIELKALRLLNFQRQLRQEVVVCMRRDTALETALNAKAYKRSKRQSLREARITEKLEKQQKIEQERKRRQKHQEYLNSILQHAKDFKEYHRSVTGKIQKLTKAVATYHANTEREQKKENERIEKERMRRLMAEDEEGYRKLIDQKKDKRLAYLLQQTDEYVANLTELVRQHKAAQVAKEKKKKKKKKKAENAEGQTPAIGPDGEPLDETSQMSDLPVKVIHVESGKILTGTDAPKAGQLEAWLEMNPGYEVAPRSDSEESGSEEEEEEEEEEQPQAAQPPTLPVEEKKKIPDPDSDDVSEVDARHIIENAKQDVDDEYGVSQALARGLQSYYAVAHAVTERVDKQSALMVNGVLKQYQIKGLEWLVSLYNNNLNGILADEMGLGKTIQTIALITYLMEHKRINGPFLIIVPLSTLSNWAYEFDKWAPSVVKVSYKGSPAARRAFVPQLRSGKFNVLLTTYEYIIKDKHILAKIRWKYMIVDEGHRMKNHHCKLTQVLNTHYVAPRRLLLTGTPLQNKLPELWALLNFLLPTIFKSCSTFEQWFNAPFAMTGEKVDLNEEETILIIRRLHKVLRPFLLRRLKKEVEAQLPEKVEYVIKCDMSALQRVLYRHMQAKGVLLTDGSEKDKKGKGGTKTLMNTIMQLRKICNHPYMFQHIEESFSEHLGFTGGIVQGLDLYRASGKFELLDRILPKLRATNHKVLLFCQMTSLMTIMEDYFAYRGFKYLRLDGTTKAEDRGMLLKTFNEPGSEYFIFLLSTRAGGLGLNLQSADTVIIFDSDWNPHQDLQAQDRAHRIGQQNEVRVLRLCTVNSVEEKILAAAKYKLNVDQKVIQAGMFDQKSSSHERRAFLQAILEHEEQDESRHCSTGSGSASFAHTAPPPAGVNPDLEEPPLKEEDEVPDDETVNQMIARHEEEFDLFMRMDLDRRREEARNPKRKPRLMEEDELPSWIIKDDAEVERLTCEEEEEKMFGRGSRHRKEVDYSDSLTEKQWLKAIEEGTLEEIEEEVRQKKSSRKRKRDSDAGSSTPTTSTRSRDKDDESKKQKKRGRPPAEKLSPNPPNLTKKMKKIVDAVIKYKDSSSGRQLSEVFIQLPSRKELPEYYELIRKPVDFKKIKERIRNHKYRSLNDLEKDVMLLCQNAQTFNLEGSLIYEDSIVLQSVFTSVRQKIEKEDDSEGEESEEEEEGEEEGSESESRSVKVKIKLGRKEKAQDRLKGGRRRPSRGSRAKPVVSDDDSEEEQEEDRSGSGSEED
Description: as §1, §2, §3

| Compound | DC50 [1] | SMARCA2 % Degradation @ 1 μM ([1]; @ 1 μM) | DC50 [2] | inhibition at 1 µM ([2]; @ 1 μM) | SMARCA2 % Degradation @ 1 μM ([1]; 1 μM) | inhibition at 1 µM ([2]; 1 μM) |
| --- | --- | --- | --- | --- | --- | --- |
| Nc1nnc(-c2ccccc2O)cc1N1CCC2(CCCN(c3ccnc(C#CCO)n3)C2)CC1 [Compound P-123, 2-(6-amino-5-(2-(2-(3-hydroxyprop-1-yn-1-yl)pyrimidin-4-yl)-2,9-diazaspiro[5.5]undecan-9-yl)pyridazin-3-yl)phenol] | 50 to 500 nM | ++ (++=30-70%) | < 50 nM | 30 to 70% | – | – |
| Nc1nnc(-c2ccccc2O)cc1N1CCN(c2ccnc(C#CCCCNC(=O)c3cc4ncccn4n3)n2)CC1 [Compound P-92, N-(5-(4-(4-(3-amino-6-(2-hydroxyphenyl)pyridazin-4-yl)piperazin-1-yl)pyrimidin-2-yl)pent-4-yn-1-yl)pyrazolo[1,5-a]pyrimidinc-2-carboxamidc] | 50 to 500 nM | + (+=<30%) | 50 to 500 nM | 30 to 70% | – | – |
| C[C@@H]1CCN(c2cc(-c3ccccc3O)nnc2N)CCN1c1ccnc(/C=C/CO)n1 [Compound P-168, o-(5-{(R)-4-[2-(3-hydroxy-1-propenyl)-4-pyrimidinyl]-5-methyl-1,4-diazepan-1-y1}-6-amino-3-pyridazinyl)phenol] | 50 to 500 nM | +++ (+++=>70%) | 50 to 500 nM | > 70% | – | – |
| Nc1nnc(-c2ccccc2O)cc1N1CCN(c2ccnc(C#CCNC(=O)c3cc4ncccn4n3)n2)CC1 [Compound P-93, N-(3-(4-(4-(3-amino-6-(2-hydroxyphenyl)pyridazin-4-yl)piperazin-1-yl)pyrimidin-2-yl)prop-2-yn-1-yl)pyrazolo[1,5-a]pyrimidine-2-carboxamide] | 50 to 500 nM | ++ (++=30-70%) | < 50 nM | 30 to 70% | – | – |
| CC(C)c1cc(C(C)C)n(CC#Cc2nccc(N3CCCN(c4cc(-c5ccccc5O)nnc4N)CC3)n2)n1 [Compound P-104, 2-(6-amino-5-(4-(2-(3-(3,5-diisopropyl-1H-pyrazol-1-yl)prop-1-yn-1-yl)pyrimidin-4-yl)-1,4-diazepan-1-yl)pyridazin-3-yl)phenol] | 50 to 500 nM | +++ (+++=>70%) | 500 to 5000 nM | 30 to 70% | – | – |
| CC(C)(C)OC(=O)N1Cc2cn(CC#Cc3nccc(N4CCCN(c5cc(-c6ccccc6O)nnc5N)CC4)n3)nc2C1 [Compound P-105, tert-butyl 2-(3-(4-(4-(3-amino-6-(2-hydroxyphenyl)pyridazin-4-yl)-1,4-diazepan-1-yl)pyrimidin-2-yl)prop-2-yn-1-yl)-2,6-dihydropyrrolo[3,4-c]pyrazole-5(4H)-carboxylate] | 50 to 500 nM | +++ (+++=>70%) | < 50 nM | > 70% | – | – |
| C[C@@H]1CCN(c2cc(-c3ccccc3O)nnc2N)CCN1c1ccnc(C#CC2CN(C)C2)n1 [Compound P-192, o-{5-[(R)-5-methyl-4-{2-[2-(1-methyl-3-azetidinyl)ethynyl]-4-pyrimidinyl}-1,4-diazepan-1-y1]-6-amino-3-pyridaziny1} phenol] | < 50 nM | +++ (+++=>70%) | 50 to 500 nM | 30 to 70% | – | – |
| C[C@@H]1CCN(c2cc(-c3ccccc3O)nnc2N)CCN1c1nc(C#CCN2C(=O)CC[C@@H]2C)ncc1F [Compound P-176, (S)-1-[3-(4-{(R)-4-[3-amino-6-(o-hydroxyphenyl)-4-pyridazinyl]-7-methyl-1,4-diazepan-1-yl}-5-fluoro-2-pyrimidinyl)-2-propynyl]-5-methyl-2-pyrrolidinone] | 50 to 500 nM | ++ (++=30-70%) | 50 to 500 nM | 30 to 70% | – | – |
| C[C@@H]1CCN(c2cc(-c3ccccc3O)nnc2N)CCN1c1ccnc(C#CCN(C)CCF)n1 [Compound P-154, o-{5-[(R)-4-(2-{3-[(2-fluoroethyl)-N-methylamino]-1-propynyl}-4-pyrimidinyl)-5-methyl-1,4-diazepan-1-yl]-6-amino-3-pyridaziny1} phenol] | 50 to 500 nM | ++ (++=30-70%) | 50 to 500 nM | < 30% | – | – |
| Nc1nnc(-c2ccccc2O)cc1N1CCCN(c2ccnc(C#CCNc3ncco3)n2)CC1 [Compound P-15, 2-(6-amino-5-(4-(2-(3-(oxazol-2-ylamino)prop-1-yn-1-yl)pyrimidin-4-yl)-1,4-diazepan-1-yl)pyridazin-3-yl)phenol] | 500 to 5000 nM | ++ (++=30-70%) | 500 to 5000 nM | < 30% | – | – |
| CC1CN(c2cc(-c3ccccc3O)nnc2N)CCCN1c1ccnc(C#CCNC(=O)c2cc3ncccn3n2)n1 (centres unmarked) [Compound P-20, N-(3-(4-(4-(3-amino-6-(2-hydroxyphenyl)pyridazin-4-yl)-2-methyl-1,4-diazepan-1-yl)pyrimidin-2-yl)prop-2-yn-1-yl)pyrazolo[1,5-a]pyrimidine-2-carboxamide] | 50 to 500 nM | ++ (++=30-70%) | 50 to 500 nM | 30 to 70% | – | – |
| CC(C)(C)OC(=O)NCC#Cc1nccc(NC2CN(c3cc(-c4ccccc4O)nnc3N)C2)n1 [Compound P-307, 4-(3-{2-[3-(tert-butoxycarbonylamino)-1-propynyl]-4-pyrimidinylamino}-1-azetidinyl)-6-(o-hydroxyphenyl)-3-pyridazinamine] | 50 to 500 nM | ++ (++=30-70%) | 50 to 500 nM | 30 to 70% | – | – |
| Nc1nnc(-c2ccccc2O)cc1N1CCN(c2ccnc(C#CCNC(=O)c3nc4ccccc4s3)n2)CC1 [Compound P-118, N-(3-(4-(4-(3-amino-6-(2-hydroxyphenyl)pyridazin-4-yl)piperazin-1-yl)pyrimidin-2-yl)prop-2-yn-1-yl)benzo[d]thiazole-2-carboxamide] | 50 to 500 nM | ++ (++=30-70%) | 50 to 500 nM | 30 to 70% | – | – |

Next, values leading:

| DC50 [1] | SMARCA2 % Degradation @ 1 μM ([1]; @ 1 μM) | DC50 [2] | inhibition at 1 µM ([2]; @ 1 μM) | SMARCA2 % Degradation @ 1 μM ([1]; 1 μM) | inhibition at 1 µM ([2]; 1 μM) | Compound |
| --- | --- | --- | --- | --- | --- | --- |
| 50 to 500 nM | ++ (++=30-70%) | 50 to 500 nM | 30 to 70% | – | – | C[C@@H]1CCN(c2cc(-c3ccccc3O)nnc2N)CCN1c1nc(C#CCn2cncn2)ncc1F [Compound P-214, o-{5-[(R)-4-{5-fluoro-2-[3-(1H-1,2,4-triazol-1-yl)-1-propynyl]-4-pyrimidinyl}-5-methyl-1,4-diazepan-1-yl]-6-amino-3-pyridazinyl}phenol] |
| 500 to 5000 nM | ++ (++=30-70%) | 500 to 5000 nM | < 30% | – | – | C[C@@H]1CCN(c2cc(-c3ccccc3O)nnc2N)CCN1c1nc(C#CCNC(=O)OC(C)(C)C)ncc1F [Compound P-248] |
| 500 to 5000 nM | ++ (++=30-70%) | 500 to 5000 nM | < 30% | – | – | C[C@@H]1CCN(c2cc(-c3ccccc3O)nnc2N)CCN1c1ccnc(C#CCNC(=O)c2cccnc2)n1 [Compound P-240, N-[3-(4-{ (R)-4-[3-amino-6-(o-hydroxyphenyl)-4-pyridazinyl]-7-methyl-1,4-diazepan-1-yl}-2-pyrimidinyl)-2-propynyl]nicotinamide] |
| 50 to 500 nM | – | 500 to 5000 nM | – | ++ (++=30-70%) | 30 to 70% | C[C@@H]1CCN(c2cc(-c3ccccc3O)nnc2N)CCN1c1ccnc(C#CCO)c1 [Compound P-397, 0-(5-{(R)-4-[2-(3-hydroxy-1-propynyl)-4-pyridyl]-5-methyl-1,4-diazepan-1-yl}-6-amino-3-pyridazinyl)phenol] |
| < 50 nM | – | < 50 nM | – | +++ (+++=>70%) | 30 to 70% | C[C@@H]1CCN(c2cc(-c3ccccc3O)nnc2N)CCN1c1ccnc(C#CCN(C)C)c1 [Compound P-427, 0-{5-[(R)-4-{2-[3-(dimethylamino)-1-propynyl]-4-pyridyl}-5-methyl-1,4-diazepan-1-yl]-6-amino-3-pyridazinyl}phenol] |
| 50 to 500 nM | ++ (++=30-70%) | 50 to 500 nM | < 30% | – | – | C[C@H]1CN(c2ccnc(C#CCn3cccn3)n2)CCN1c1cc(-c2ccccc2O)nnc1N [Compound P-329, 0-{5-[(S)-2-methyl-4-{2-[3-(1-pyrazolyl)-1-propynyl]-4-pyrimidinyl}-1-piperazinyl]-6-amino-3-pyridazinyl} phenol] |
| 50 to 500 nM | ++ (++=30-70%) | 50 to 500 nM | 30 to 70% | – | – | C[C@@H]1CCN(c2cc(-c3ccccc3O)nnc2N)CCN1c1ccnc(C#CCN2CC(F)(F)[C@@H]2C)n1 [Compound P-270, 0-{5-[(R)-4-(2-{3-[(S)-3,3-difluoro-2-methyl-1-azetidinyl]-1-propyny1}-4-pyrimidinyl)-5-methyl-1,4-diazepan-1-yl]-6-amino-3-pyridaziny1} phenol] |
